From patent US10351594B2, “Process for preparing compounds having triple activities of thrombolysis, antithrombosis, and radical scavenging” (Shanghai Lumosa Therapeutics Co., Ltd., priority 2013, dated 2019) come the findings set out here.

Entries after “also recorded” stand apart in the source; their conditions may differ. Marks after values point to notes of the source that are not given here.

A short description of assay [1]: Hydroxyl free radical scavenging activity (DMPO signal peak height). Type of assay: biochemical. To be noted: n = 6; read-out: EC50 of scavenging •OH. The method, then: 11.316 mg DMPO ([…], Sigma) was dissolved in 1 mL of pure water to obtain 0.1 M DMPO solution. […] FeSO4.7H2O was dissolved in 1 mL of pure water to obtain 10 mM solution. 30% medical H2O2 was diluted to 0.2%.
The first peak height of the OH signal of 2.5 μL FeSO4.7H2O solution+2.5 μL DMPO solution+5 μL H2O2 solution+5 μL water was measured and repeated for 6 times. This peak height defined as the known peak height of OH signal. The first peak height of the OH signal of 2.5 μL FeSO4.7H2O solution+2.5 μL DMPO solution+5 μL H2O2 solution+5 μL solution of one of the compounds 5Aa-p was measured and repeated for 6 times. This peak height defined as the residual peak height of the OH signal scavenged by one of the compounds 5Aa-p. Scavenging ratio=(known peak height of OH signal−residual peak height of OH signal of compounds 5Aa-p)/known peak height of OH signal

A short description of assay [2]: Superoxide anionic radical scavenging activity (xanthine/xanthine oxidase, DMPO). Conditions: n = 6. The class given is biochemical. The method, then: […] xanthine was dissolved in 1 mL of pure water to obtain 0.5 M xanthine solution (milk white color, largely insoluble). Commercially available raw solution of xanthine oxidase was diluted 10 folds to obtain solution of xanthine oxidase. Saturated DETAPAC solution was diluted 20 folds to obtain 0.9 mM solution. 11.316 mg DMPO was dissolved in 1 mL of pure water to obtain 0.1 M DMPO solution.
5 μL DMPO solution+5 μL DETAPAC solution+5 μL xanthine solution+5 μL xanthine oxidase solution+5 μL compounds 5Aa-p solution
The first peak height of superoxide anion signal of 5 μL DMPO solution+5 μL DETAPAC solution+5 μL xanthine solution+5 μL xanthine oxidase solution+5 μL water was measured and repeated for 6 times. This peak height defined as the known peak height of superoxide anion signal. The first peak height of superoxide anion signal of 5 μL DMPO solution+5 μL DETAPAC solution+5 μL xanthine solution+5 μL xanthine oxidase solution+5 μL solution of one of compounds 5Aa-p was measured and repeated for 6 times. This peak height defined as the residual peak height of the superoxide anion signal scavenged by one of the compounds 5Aa-p. Scavenging ratio=(known peak height of superoxide anion signal−residual peak height of superoxide anion signal of compounds 5Aa-p)/known peak height of superoxide anion signal

Assay [3] concerns thrombus (rat arteriovenous bypass thrombolysis model). The assay can be described thus: Thrombolytic activity via intravenous administration, rat arteriovenous bypass thrombolysis model. The class given is in vivo, male SD rats. To be noted: rat; for Weight reduction in thrombus: intravenous injection, 5Aa-p 0.1 nmol/kg, 1 hour, n = 10; for Thrombolytic activity, result in words: intravenous, 0.1 nmol/kg (5Ak also 0.01 and 0.001 nmol/kg), urokinase 20000 U/kg. As to the method:
200-220 g male SD rats were anesthetized with 20% urethane solution (6 mL/kg, ip). Anesthetized rats were fixed in a supine position, and the right common carotid artery was separated, clamped at the proximal end with an arterial clip, and penetrated with a suture at the proximal and distal ends, respectively. The suture at the distal end is clipped tightly by a hemostatic clamp at the skin/fur. Cannulation was performed at the distal end, the arterial clamp was loosened, and about 1 ml arterial blood was discharged into a 1 mL EP vial. 0.1 mL rat arterial blood was injected into a vertically fixed glass tube (15 mm in length, with an inner diameter of 2.5 mm and an outer diameter of 5.0 mm, sealed with a rubber stopper at the bottom), into which was immediately inserted a thrombus immobilization screw made of stainless steel. […] 40 min after the blood coagulated, the rubber stopper at the bottom of the glass tube was removed, the stem of the thrombus immobilization screw was fixed by forceps, and the thrombus-wrapped thrombus immobilization screw was carefully taken out from the glass tube and precisely weighted.
A bypass cannula was composed of 3 segments. The middle segment was a polyethylene tube having a length of 60 mm and an inner diameter of 3.5 mm. The segments on both ends were similar polyethylene tubes having a length of 100 mm, an inner diameter of 1 mm and an outer diameter of 2 mm, one end of which was pulled to form a tip, with an outer diameter of 1.0 mm (used in inserting into the rat carotid artery or vein), the other end of which was sheathed by a polyethylene tube having a length of 7 mm and an outer diameter of 3.5 mm (thickened, used in inserting into the polyethylene tube of the middle segment). The inner wall of the 3-segment cannula was entirely silylated. The thrombus-wrapped thrombus immobilization screw was placed into the polyethylene tube of the middle segment, and both ends of the tube sheath the thickened ends of two polyethylene tubes. The cannula was filled with a heparin solution in normal saline (50 IU/kg) through the tip end by using an injector and was ready for use.
The left external jugular vein of the rat was separated and penetrated with a suture at the proximal and distal ends respectively, and the distal end was ligated. An incision was carefully made on the exposed left external jugular vein, and the tip of the bypass cannula prepared as described above was inserted into the proximal end of the incision in the left external jugular vein, away from the stem of the thrombus immobilization screw in the middle segment of the bypass cannula (which accommodated the accurately weighed thrombus immobilization screw). A precise amount of heparin in saline (50 IU/kg) was injected through the tip at the other end by using an injector. At this moment, without removing the injector from the polyethylene tube, the tube between the injector and the polyethylene tube was clamped with a hemostatic clamp. The blood flow was stopped by clamping the proximal end of the right common carotid artery with an arterial clip, and an incision was cut carefully across the common carotid artery near the clip. The injector was pulled out of the polyethylene tube through the tip, and the tip of the polyethylene tube was then inserted into the proximal end of the artery incision. Both ends of the bypass cannula were fixed to the artery or vein with #4 sutures.
A scalp needle was used to pass saline solution, a urokinase in saline solution or varied concentrations of the compounds in saline solution through the middle section of the bypass cannula (which accommodated the accurately weighed thrombus immobilization screw) to a position at the proximal vein and away from the thrombus immobilization screw. The artery clip was then removed to allow blood to flow from the artery to the vein through the bypass cannula. A rat arteriovenous bypass thrombolysis model was thus established. […]

A short description of assay [4]: NO radical scavenging activity (MGD/SNAP signal peak height). The class given is biochemical. To be noted: n = 6. As to the method: 7.325 mg MGD (N-methyl-glucamine dithiocarbamate, Sigma) was dissolved in 1 mL of pure water to obtain 25 mM MGD solution. […] FeSO4.7H2O was dissolved in 1 mL of pure water to obtain 12.5 mM solution. […] SNAP (S-Nitroso-acetyl penicillamine) was dissolved in 1 mL of pure water to obtain 110 μM green mother liquid, which was diluted 100 folds to obtain 1 μM SNAP solution.
The first peak height of NO signal of 5 μL MGD solution+5 μL FeSO4.7H2O solution+5 μL SNAP solution+5 μL water was measured and repeated for 6 times. This peak height defined as the known peak height of NO signal. The first peak height of NO signal of 5 μL MGD solution+5 μL FeSO4.7H2O solution+5 μL SNAP solution+5 μL solution of one of the compounds 5Aa-p was measured and repeated for 6 times. This peak height defined as the residual peak height of the NO signal scavenged by one of the compounds 5Aa-p. Scavenging ratio=(known peak height of NO signal−residual peak height of NO signal of compounds 5Aa-p)/known peak height of NO signal

As usually defined, the EC50 is the concentration that produces a half-maximal response. “3S-6,7-dihydroxy-1,1-dimethyl-1,2,3,4-tetrahydro-isoquinoline-3-acyl-Lys(Pro-Ala-Ala) [Compound 5Aa]”: the EC50 in assay [1] amounted to 459 ± 66 µM; in assay [2] it was 477 ± 56 µM; in assay [4] it was 599 ± 38 µM. Further, the “Weight reduction in thrombus” value in assay [3] is 19.35 ± 2.76^b mg. In addition, in assay [3], the “Thrombolytic activity, result in words” value was “comparable to that of urokinase; also recorded: higher thrombolytic activity”.
“3S-6,7-dihydroxy-1,1-dimethyl-1,2,3,4-tetrahydro-isoquinoline-3-acyl-Lys(Pro-Ala-Gly) [Compound 5Ag]”: the results for the EC50 in assay [1], in assay [2] and in assay [4] were 422 ± 61 µM, 467 ± 94 µM and 609 ± 95 µM, respectively. Moreover, the “Weight reduction in thrombus” value in assay [3] was 18.98 ± 2.14^b mg. In addition, the “Thrombolytic activity, result in words” value in assay [3] is on record as “comparable to that of urokinase; also recorded: higher thrombolytic activity”.
In the case of “3S-6,7-dihydroxy-1,1-dimethyl-1,2,3,4-tetrahydro-isoquinoline-3-acyl-Lys(Pro-Ala-Val) [Compound 5Ab]”, the EC50 in assay [1] worked out at 471 ± 71 µM; in assay [2], 471 ± 34 µM; in assay [4] it was 532 ± 73 µM. The “Weight reduction in thrombus” value in assay [3] was 17.12 ± 1.64^a mg.
On the same counts, the results for `C[C@H](NC(=O)[C@@H]1CCCN1)C(=O)N[C@@H](Cc1c[nH]c2ccccc12)C(=O)NCCCC[C@H](NC(=O)[C@@H]1Cc2cc(O)c(O)cc2C(C)(C)N1)C(=O)O` [Compound 5Ac, 3S-6,7-dihydroxy-1,1-dimethyl-1,2,3,4-tetrahydro-isoquinoline-3-acyl-Lys(Pro-Ala-Trp)] are 378 ± 85 µM, 366 ± 71 µM, 463 ± 92 µM and 16.23 ± 2.81^a mg.
Turning to `C[C@H](NC(=O)[C@@H]1CCCN1)C(=O)N[C@@H](Cc1ccc(O)cc1)C(=O)NCCCC[C@H](NC(=O)[C@@H]1Cc2cc(O)c(O)cc2C(C)(C)N1)C(=O)O` [Compound 5Ad, 3S-6,7-dihydroxy-1,1-dimethyl-1,2,3,4-tetrahydro-isoquinoline-3-acyl-Lys(Pro-Ala-Tyr)], the concentration for a half-maximal effect (EC50) in assay [1] was 369 ± 32 µM; in assay [2], 354 ± 71 µM; in assay [4] it was 453 ± 41 µM. Further, the “Weight reduction in thrombus” value in assay [3] was 18.11 ± 2.48^b mg. The “Thrombolytic activity, result in words” value in assay [3] is listed as “higher thrombolytic activity”.
Turning to `C[C@H](NC(=O)[C@@H]1CCCN1)C(=O)N1CCC[C@H]1C(=O)NCCCC[C@H](NC(=O)[C@@H]1Cc2cc(O)c(O)cc2C(C)(C)N1)C(=O)O` [Compound 5Ae, 3S-6,7-dihydroxy-1,1-dimethyl-1,2,3,4-tetrahydro-isoquinoline-3-acyl-Lys(Pro-Ala-Pro)], the EC50 in assay [1] came out at 466 ± 47 µM; in assay [2], 481 ± 45 µM; in assay [4], 617 ± 88 µM. Moreover, the “Weight reduction in thrombus” value in assay [3] is 13.63 ± 1.92^a mg.
Turning to `C[C@H](NC(=O)[C@@H]1CCCN1)C(=O)N[C@@H](Cc1ccccc1)C(=O)NCCCC[C@H](NC(=O)[C@@H]1Cc2cc(O)c(O)cc2C(C)(C)N1)C(=O)O` [Compound 5Af, 3S-6,7-dihydroxy-1,1-dimethyl-1,2,3,4-tetrahydro-isoquinoline-3-acyl-Lys(Pro-Ala-Phe)], the values for the EC50 in assay [1], in assay [2] and in assay [4] were 544 ± 43 µM, 485 ± 31 µM and 568 ± 95 µM, respectively. Also, the “Weight reduction in thrombus” value in assay [3] is given as 17.92 ± 1.69^b mg. Also, the “Thrombolytic activity, result in words” value in assay [3] was “comparable to that of urokinase; also recorded: higher thrombolytic activity”.
Regarding `C[C@H](NC(=O)[C@@H]1CCCN1)C(=O)N[C@@H](CO)C(=O)NCCCC[C@H](NC(=O)[C@@H]1Cc2cc(O)c(O)cc2C(C)(C)N1)C(=O)O` [Compound 5Ah, 3S-6,7-dihydroxy-1,1-dimethyl-1,2,3,4-tetrahydro-isoquinoline-3-acyl-Lys(Pro-Ala-Ser)], the figures for the EC50 in assay [1], in assay [2] and in assay [4] were 413 ± 73 µM, 401 ± 72 µM and 523 ± 85 µM, respectively. In assay [3], the “Weight reduction in thrombus” value is on record as 17.10 ± 1.79^a mg.
